Measurements reported in ChEMBL document CHEMBL3751817, “Anti-HIV-1 activity of a tripodal receptor that recognizes mannose oligomers” (Eur J Med Chem, 2015).
pEC50, pIC50: −log10 of the molar value. One block for each compound: values may come before it. Activity calls are given as the source filed them. No cut-off for these calls is given here.

How the values were obtained:
[1] = system: Human immunodeficiency virus 1; assay: Antiviral activity against HIV1 3B infected in human CD4+ T-lymphocyte CEM cells assessed as inhibition of virus-induced cytopathicity after 4 to 5 days by microscopic analysis; type: functional, organism-based; details: Human immunodeficiency virus 1, 3B, CCRF-CEM
[2] = system: Human immunodeficiency virus 2; assay: Antiviral activity against HIV2 ROD infected in human CD4+ T-lymphocyte CEM cells assessed as inhibition of virus-induced cytopathicity after 4 to 5 days by microscopic analysis; type: functional, organism-based; details: Human immunodeficiency virus 2, ISOLATE ROD, CCRF-CEM
CCRF-CEM = assay: Cytotoxicity against human CD4+ T-lymphocyte CEM cells; type: cell-based
[3] = Inhibition of HIV integrase-mediated strand transfer activity using precleaved 19T duplex oligonucleotide after 2 hrs; design: species or system Human immunodeficiency virus
[4] = Inhibition of HIV integrase-mediated 3'-processing activity using 5'-[gamma-32P]-labeled full length 21T DNA after 2 hrs; design: species or system Human immunodeficiency virus
[5] = system: Human immunodeficiency virus 1; assay: Binding affinity to recombinant HIV1 3B glycoprotein-120 after 5 mins by sensorchip reverse surface plasmon resonance assay
[6] = system: Human immunodeficiency virus 1; assay: Binding affinity to recombinant HIV1 3B glycoprotein-120 after 5 mins by sensorchip direct surface plasmon resonance assay
[7] = system: Human immunodeficiency virus 1; assay: Binding affinity to recombinant HIV1 3B glycoprotein-120 at 5 uM after 5 mins by sensorchip direct surface plasmon resonance assay in presence of 100 and 400 uM mann (alpha-1,2)3
[8] = system: Human immunodeficiency virus 1; assay: Binding affinity to recombinant HIV1 3B glycoprotein-120 at 5 uM after 5 mins by sensorchip direct surface plasmon resonance assay in presence of 100 and 400 uM mann (alpha-1,3-1,6)3
[9] = system: Human immunodeficiency virus; assay: Inhibition of HIV integrase-mediated strand transfer activity using 5'-[gamma-32P]-labeled full length 21T DNA at 50 nM after 2 hrs

Structure (SMILES): CCc1c(CNC(=O)c2ccc(N)cc2)c(CC)c(CNC(=O)c2ccc(N)cc2)c(CC)c1CNC(=O)c1ccc(N)cc1
pEC50 [1]: < 3.60 | pEC50 [2]: < 3.60 | CC50 (CCRF-CEM): > 250 µM

Structure (SMILES): CCc1c(CNC(=O)c2ccc(O)c(O)c2O)c(CC)c(CNC(=O)[C@H]2C[C@@H](C(=O)NCc3c(CC)c(CNC(=O)c4ccc(O)c(O)c4O)c(CC)c(CNC(=O)c4ccc(O)c(O)c4O)c3CC)C[C@@H](C(=O)NCc3c(CC)c(CNC(=O)c4ccc(O)c(O)c4O)c(CC)c(CNC(=O)c4ccc(O)c(O)c4O)c3CC)C2)c(CC)c1CNC(=O)c1ccc(O)c(O)c1O
pEC50 [1]: < 5.00 | pEC50 [2]: < 5.00 | CC50 (CCRF-CEM): 25 µM

Structure (SMILES): CN[C@@H]1[C@H](O[C@@H]2OC[C@@H](O)[C@H](O)[C@H]2O)[C@@H](O)[C@H](O[C@H]2c3cc(C)c(C(=O)N[C@H](C)C(=O)O)c(O)c3-c3c(cc4c(c3O)C(=O)c3cc(OC)cc(O)c3C4=O)[C@@H]2O)O[C@@H]1C [PRADIMICIN A]
pEC50 [1]: 5.47 | CC50 (CCRF-CEM): > 50 µM

Structure (SMILES): CCc1c(CN2CCN(C(=O)c3ccc(O)c(O)c3O)CC2)c(CC)c(CN2CCN(C(=O)c3ccc(O)c(O)c3O)CC2)c(CC)c1CN1CCN(C(=O)c2ccc(O)c(O)c2O)CC1
pEC50 [1]: < 5.00 | pIC50 [3]: 5.25 | pEC50 [2]: < 5.00 | pIC50 [4]: 4.38 | CC50 (CCRF-CEM): 36 µM

Structure (SMILES): CCc1c(CNCCCCNC(=O)c2ccc(O)c(O)c2O)c(CC)c(CNCCCCNC(=O)c2ccc(O)c(O)c2O)c(CC)c1CNCCCCNC(=O)c1ccc(O)c(O)c1O
pEC50 [1]: < 5.00 | pEC50 [2]: < 5.00 | CC50 (CCRF-CEM): 25 µM

Structure (SMILES): CCc1c(CNC(=O)c2cc(O)c(O)c(O)c2)c(CC)c(CNC(=O)c2cc(O)c(O)c(O)c2)c(CC)c1CNC(=O)c1cc(O)c(O)c(O)c1
pEC50 [1]: < 5.00 | pEC50 [2]: < 5.00 | CC50 (CCRF-CEM): 49 µM

Structure (SMILES): CCc1c(CNC(=O)c2ccc[nH]2)c(CC)c(CNC(=O)c2ccc[nH]2)c(CC)c1CNC(=O)c1ccc[nH]1
pEC50 [1]: < 5.00 | pEC50 [2]: < 5.00 | CC50 (CCRF-CEM): > 10 µM

Activity [5]: Active
Structure (SMILES): CCc1c(CNC(=O)CCC(=O)NCCCOCCOCCOCCCN)c(CC)c(CNC(=O)c2ccc(O)c(O)c2O)c(CC)c1CNC(=O)c1ccc(O)c(O)c1O

Structure (SMILES): CCc1c(CNC(=O)c2ccc(O)c(O)c2O)c(CC)c(CNC(=O)c2ccc(O)c(O)c2O)c(CC)c1CNC(=O)c1ccc(O)c(O)c1O
Activity [6]: Active | pEC50 [1]: 5.20 | pIC50 [3]: 4.96 | Activity [7]: inactive | pEC50 [2]: 4.39 | Activity [8]: inactive | pIC50 [4]: 4.51 | CC50 (CCRF-CEM): 144 µM

Activity [6]: Active
Structure (SMILES): CN[C@H]1[C@@H](O[C@H]2O[C@@H](CO)[C@H](O)[C@@H](OS(=O)(=O)O)[C@@H]2O)[C@H](O)[C@@H](O[C@H]2c3cc(C)c(C(=O)N[C@H](C)C(=O)O)c(O)c3-c3c(cc4c(c3O)C(=O)c3cc(OC)cc(O)c3C4=O)[C@@H]2O)O[C@H]1C

Structure (SMILES): CCc1c(CNCCNC(=O)c2ccc(O)c(O)c2O)c(CC)c(CNCCNC(=O)c2ccc(O)c(O)c2O)c(CC)c1CNCCNC(=O)c1ccc(O)c(O)c1O
pEC50 [1]: < 5.00 | pEC50 [2]: < 5.00 | CC50 (CCRF-CEM): 117 µM

Structure (SMILES): CCc1c(CNC(=O)c2cccc(O)c2O)c(CC)c(CNC(=O)c2cccc(O)c2O)c(CC)c1CNC(=O)c1cccc(O)c1O
pEC50 [1]: < 5.70 | pEC50 [2]: < 5.70 | CC50 (CCRF-CEM): 5 µM

Structure (SMILES): CCc1c(CNC(=O)C2=C[C@H](O)[C@H](O)[C@@H](O)C2)c(CC)c(CNC(=O)C2=C[C@H](O)[C@H](O)[C@@H](O)C2)c(CC)c1CNC(=O)C1=C[C@H](O)[C@H](O)[C@@H](O)C1
pEC50 [1]: < 3.60 | pEC50 [2]: < 3.60 | CC50 (CCRF-CEM): > 250 µM

Structure (SMILES): CCc1c(CNC(=O)c2ccc(O)cc2O)c(CC)c(CNC(=O)c2ccc(O)cc2O)c(CC)c1CNC(=O)c1ccc(O)cc1O
pEC50 [1]: < 5.40 | pEC50 [2]: < 5.40 | CC50 (CCRF-CEM): 28 µM

inhibition [9]: > 50%
Structure (SMILES): C[C@@H]1CCO[C@H]2Cn3cc(C(=O)NCc4ccc(F)cc4F)c(=O)c(O)c3C(=O)N12

Structure (SMILES): CCc1c(CNC(=O)C2C[C@H](O)C(O)[C@@H](O)C2)c(CC)c(CNC(=O)C2C[C@H](O)C(O)[C@@H](O)C2)c(CC)c1CNC(=O)C1C[C@H](O)C(O)[C@@H](O)C1 (some centres not stated)
pEC50 [1]: < 3.60 | pEC50 [2]: < 3.60 | CC50 (CCRF-CEM): > 250 µM

Structure (SMILES): CCc1c(CNC(=O)CCc2ccc(O)c(O)c2)c(CC)c(CNC(=O)CCc2ccc(O)c(O)c2)c(CC)c1CNC(=O)CCc1ccc(O)c(O)c1
pEC50 [1]: < 5.00 | pEC50 [2]: < 5.00 | CC50 (CCRF-CEM): 22 µM

Structure (SMILES): CCc1c(CNC(=O)c2c(O)cc(O)cc2O)c(CC)c(CNC(=O)c2c(O)cc(O)cc2O)c(CC)c1CNC(=O)c1c(O)cc(O)cc1O
pEC50 [1]: < 4.30 | pEC50 [2]: < 4.30 | CC50 (CCRF-CEM): 112 µM

Structure (SMILES): CCc1c(CNC(=O)c2ccc(N)nc2)c(CC)c(CNC(=O)c2ccc(N)nc2)c(CC)c1CNC(=O)c1ccc(N)nc1
pEC50 [1]: < 3.60 | pEC50 [2]: < 3.60 | CC50 (CCRF-CEM): > 250 µM
